The values that follow come from US20230242669A1, “ANTIBODY THAT BINDS ERBB-2 AND ERBB-3” (Merus N.V., priority 2014, published 2023).

One series relates to AKT in JIMT-1 tumors. The series is described as follows: Phosphoprotein analysis of JIMT-1 tumors by Luminex. The series is classed as in vivo, mice. As to the method: Tumors were flash-frozen and processed to powder. Tumor lysates were prepared to a concentration of 50 mg tumor/mL using cold BioRad Lysis Buffer (supplemented with 0.4% BioRad Factor 1, 0.2% BioRad Factor 2, and 2 mM PMSF) to the frozen powder samples, incubated at 4° C. on a rocker for 60 minutes to ensure complete lysis. The samples were centrifuged at 4° C. for 10 minutes at 16000 × g, and aliquoted. Total protein was determined using the Biorad DC Protein Assay reagents according to manufacturer’s instructions. Luminex Assay: The JIMT-1 tumor lysate samples were processed and analyzed for: Total AKT AKT(Ser473) and AKT(Thr308using commercially available Luminex kits from Millipore (Cat # 48-618MAG (Lot No. 2532050), 46-645MAG (Lot No. 46645 M-1K). Each sample was tested in duplicate. Dilutions were prepared in sample diluent to load a target of approximately 25 µg protein per well for all total and phosphorylated analyte determinations. The Millipore kits were used according to the manufacturer’s specifications.

Series [1] relates to human stem cell derived cardiomyocytes. The series is described as follows: Cardiomyocyte viability under doxorubicin stress. The series is classed as cell-based. The following applies: 3 µM doxorubicin, 10 ng/ml HRG; monospecific antibodies 68 nM.
Description: Human stem cell derived cardiomyocytes (Pluriomics BV) were seeded at a concentration of 20.000 well in white flat-bottom assay plates (corning 655098). On day 5 of culture the medium was replaced for glucose and galactose free culture medium supplemented with 10 ng/ml HRG. On day 7 test antibodies were added in combination with doxorubicin (3 µM). Cell viability was assayed on day 9 using the Promega Cell titer Glo assay.
Another series has as its system JIMT-1 tumor. The series is described as follows: JIMT-1 xenograft study. The following applies: 2.5 and 25 mg/kg ip qwk × 4. The series is classed as in vivo, CB.17 SCID mice. The protocol: JIMT-1 human breast carcinoma cells were grown in DMEM containing 10% fetal bovine serum, 100 units/mL penicillin G sodium, 100 µg/mL streptomycin sulfate, 25 µg/mL gentamicin, and 2 mM glutamine until the time of implantation. At the day of implantation JIMT-1 breast cells were harvested during log phase growth and resuspended in cold PBS. […] Each mouse was injected subcutaneously in the right flank with 5 ×10^6 tumor cells (0.2 mL cell suspension). The tumors were measured with a caliper in two dimensions to monitor size as the mean volume twice per week. Once tumors had reached approximately 100-150 mm^3 in size animals were enrolled in the efficacy study. Outlier animals -tumor volume - were removed and the mice were randomly distributed into groups of 10 mice each. Mice were injected once weekly (antibody) or daily (lapatinib) for a period of four weeks. Details of the treatment groups are depicted in Table 11.
Tumor sizes were measured weekly by caliper measurement.

In series [2] the test system is HER2+, HER2++ and HER2+++ breast and gastric cancer cell lines. Put plainly: FACS binding to cell lines with different HER2 levels. Details: species or system human. The following applies: HER2++ and HER2+ cells. As to the method:
Cells were considered HER2+++ if they express millions of HER2 copies and/or are HER2 gene amplified. The following cell lines were used: MCF-7 (HER 2 +); MDA-MB-468 (HER2 +, MKN-45 (HER2 +), MDA-MB-175 (HER2+), MDA-MB-453 (HER2 ++), MDA-MB-361(HER2 ++), ZR-75-1(HER2 ++), JIMT-1 (HER2+++), BT-474 (HER2+++), SKBR-3 (HER2+++), SK-OV-3 (HER2+++), N87 (HER2+++). Cells of an exponentially grown culture were harvested by trypsin and diluted to 10^6 cells/ml in FACS buffer (PBS/0.5%BSA/0.5 mM EDTA). 1-2 10^5 cells were added to each well in a U-bottom 96 well plate. Cells were centrifuged for 2 minutes at 300 g at 4° C. Supernatant was discarded by inverting plate(s) above, followed by flicking once. 50 µl of each IgG sample was added in a serial dilution from 3.16 ng- 10 µg/ml and incubated for 1H on ice. Cells were centrifuged once, supernatant was removed and cells were washed twice with FACS buffer. 50 µl diluted 1:100 mouse anti human IgG gamma PE (INVITROGEN®) was added and incubated for 30-60 minutes on ice in the dark. […] Cells were analysed on a FACSCanto Flow cytometer in a HTS setting. The quantity of antibody bound was assessed by median fluorescence. Data were plotted and the area under the curve (AUC, a cumulative measurement of the median fluorescence intensity) was determined for each antibody per cell line tested (FIG. 26).

In series [3] the test system is HRG mediated phosphorylation in N87 and SKBR-3 cells. Put plainly: PathScan RTK / intracellular signaling antibody arrays. The following applies: 5 nM antibody, 100 ng/ml HRG. The series is classed as cell-based, human. The protocol: Cells of an exponentially grown culture were harvested and seeded in 6 well plates (3.75 ×10^6 cells for N87 and 1.5×10^6 cells for SKBR-3) in starvation medium (N87 cells: RPMI-1640, 0.05% BSA, 10 µg/ml Holo-transferrin; SKBR-3 cells: DMEM/F-12, 2 mM L-glutamine, 0.05% BSA, 10 µg/ml Holo-transferrin) and incubated incubated overnight at 37° C., 5% CO2, in 95% relative humidity. The next day, antibodies were added to a final concentration of 5 nM and cells were incubated for one hour at 37° C., 5% CO2, in 95% relative humidity. HRG was then added to a final concentration of 100 ng/ml. After 1, 3, 6 or 24 hours at 37° C., 5% CO2, in 95% relative humidity, plates were placed on ice, cells were washed twice with cold PBS. Subsequently 0.3 ml ice-cold lysis buffer was added (Cell signaling RTK # 9803 or IC # 7018) and cells were lysed for a minimum of 30 minutes on ice. Next, protein concentrations were measured using BCA (Pierce #23235). Protein concentrations were adjusted to 2 mg/ml with lysis buffer. Next, lysates were applied to PathScan RTK Signaling Antibody Arrays (Cell signaling #7949) or PathScan Intracellular Signaling Antibody Arrays. All incubations were performed with sealed wells on an orbital shaker at room temperature. Lysates (75 µl) were diluted 2 times to […] concentration with 75 µl Array Diluent Buffer supplemented with protease inhibitor cocktail and kept on ice. Array wells were blocked with 100 µl Array block buffer for 15 minutes. Block buffer was removed and Lysates were applied to the wells and allowed to incubate for 2 hours. Lysate was aspirated and wells were washed 4 times with 100 µl Wash buffer. Next, 100 µl detection antibody cocktail was added per well and incubated for 1 hour. Antibody cocktail was aspirated and wells were washed 4 times with 100 µl Wash buffer. 75 µl DYLIGHT80™ Streptavidin was added to each well. DYLIGHT80™ Streptavidin was aspirated and wells were washed 4 times with 100 µl Wash buffer. […] Spot fluorescence intensity was calculated using Image Studio software.

As for “PB4188: bispecific HER2xHER3 IgG: HER2 arm MF3958, HER3 arm MF3178”, in the series with AKT in JIMT-1 tumors (JIMT-1 tumors), the “Akt expression in tumors compared to untreated tumors” value was “increase in Akt expression”. Also, the “Phosphorylation of AKT in tumors” value with AKT in JIMT-1 tumors (after two-weekly and four-weekly dose) is given as “completely inhibited”. Further, the “Cardiomyocyte viability (ATP)” value in series [1] is listed as “unaffected”. The “Efficacy on tumor size” value in the series on JIMT-1 tumor was “more potent than lapatinib or the combination pertuzumab and trastuzumab”. In addition, in series [2], the “Binding affinity compared to trastuzumab (AUC of median fluorescence)” value is recorded as “higher binding affinity”. In series [3], the “ERK and S6 phosphorylation” value was “strong inhibition”; the HER2 phosphorylation result is recorded as “does not inhibit phosphorylation of HER2”. Also, the AKT phosphorylation result in series [3] (first 6H) is “completely blocks AKT phosphorylation”.
